Among the data in patent US8722628B2, “Autophagy-inducing peptide” (priority 2012, dated 2014) are autophagy induction and cell killing values, retold here.

The structures appear in SMILES notation.

For the experiment, the system named is H1975 cells. The note with it: EGFR T790M.

With `C#Cc1cccc(Nc2ncnc3cc(OCCOC)c(OCCOC)cc23)c1` [Erlotinib], the autophagy induction result is recorded as “fails to induce autophagy” and the cell killing result is listed as “fails to kill the cells”.
